These results are taken from ChEMBL document CHEMBL4196001, “Design, semisynthesis, α-glucosidase inhibitory, cytotoxic, and antibacterial activities of p-terphenyl derivatives” (Eur J Med Chem, 2018).

Values after ≈ are worked out from the molar mass of the structure shown. Active and inactive are the calls of the source. No cut-off for these calls is given here.

The test system of data set [1] is HeLa. The data set can be described thus: Cytotoxicity against human HeLa cells by SRB assay. The format is functional, cell-based. Background: Sulforhodamine B stains cellular protein and so reports cell mass.
Data set [2] in a line: Cytotoxicity against human Chang cells by SRB assay. The format is cell-based.
Data set [3] concerns the target T1, Alpha glucosidase (Homo sapiens, UniProt O43451+P10253+P14410+Q2M2H8). The data set can be described thus: Inhibition of human alpha-glucosidase expressed in Saccharomyces cerevisiae using p-nitrophenyl-alpha-D-glucopyranoside as substrate after 15 mins.
Data set [4] has as its system A549. In words: Cytotoxicity against human A549 cells by SRB assay. Type of data set: functional, cell-based.
For another data set, the system named is Staphylococcus aureus. The data set can be described thus: Antibacterial activity against Staphylococcus aureus after 24 hrs by broth macrodilution method. Type of data set: functional.
In data set [5] the test system is HepG2. In words: Cytotoxicity against human HepG2 cells by SRB assay. Type of data set: functional, cell-based.
The test system of data set [6] is HeLa. In words: Cell cycle arrest in human HeLa cells assessed as accumulation of cells at G2/M phase at 5 uM after 36 hrs by flow cytometric analysis (reference value: 9.92%). The format is functional. For orientation: In flow cytometry, cells or beads pass a laser one at a time.
Data set [7] has as its system HeLa. In words: Cell cycle arrest in human HeLa cells assessed as accumulation of cells at G2/M phase at 10 uM after 36 hrs by flow cytometric analysis (reference value: 9.92%). Type of data set: functional.
Data set [8] concerns HeLa. In words: Cell cycle arrest in human HeLa cells assessed as accumulation of cells at S phase at 2.5 uM after 36 hrs by flow cytometric analysis (reference value: 23.44%). The format is functional.
Data set [9] concerns HeLa. The data set can be described thus: Cell cycle arrest in human HeLa cells assessed as accumulation of cells at G0/G1 phase at 1.25 uM after 36 hrs by flow cytometric analysis (reference value: 66.64%). Type of data set: functional.
In data set [10] the test system is HeLa. The data set can be described thus: Cell cycle arrest in human HeLa cells assessed as accumulation of cells at S phase at 1.25 uM after 36 hrs by flow cytometric analysis (reference value: 23.44%). Type of data set: functional.
Data set [11] deals with HeLa. In words: Cell cycle arrest in human HeLa cells assessed as accumulation of cells at G0/G1 phase at 10 uM after 36 hrs by flow cytometric analysis (reference value: 66.64%). The format is functional.
Data set [12] has as its system HeLa. In words: Cell cycle arrest in human HeLa cells assessed as accumulation of cells at G0/G1 phase at 5 uM after 36 hrs by flow cytometric analysis (reference value: 66.64%). Type of data set: functional.
The test system of data set [13] is HeLa. The data set can be described thus: Cell cycle arrest in human HeLa cells assessed as accumulation of cells at G0/G1 phase at 2.5 uM after 36 hrs by flow cytometric analysis (reference value: 66.64%). The format is functional.
Data set [14] has as its system HeLa. In words: Cell cycle arrest in human HeLa cells assessed as accumulation of cells at G2/M phase at 1.25 uM after 36 hrs by flow cytometric analysis (reference value: 9.92%). The format is functional.
The test system of data set [15] is HeLa. In words: Cell cycle arrest in human HeLa cells assessed as accumulation of cells at S phase at 5 uM after 36 hrs by flow cytometric analysis (reference value: 23.44%). Type of data set: functional.
The test system of data set [16] is HeLa. In words: Cell cycle arrest in human HeLa cells assessed as accumulation of cells at S phase at 10 uM after 36 hrs by flow cytometric analysis (reference value: 23.44%). Type of data set: functional.
Data set [17] concerns HeLa. In words: Cell cycle arrest in human HeLa cells assessed as accumulation of cells at G2/M phase at 2.5 uM after 36 hrs by flow cytometric analysis (reference value: 9.92%). The format is functional.
The test system of data set [18] is HepG2. The data set can be described thus: Cytotoxicity against human HepG2 cells at 10 uM by SRB assay. The format is functional, cell-based.
The test system of data set [19] is HeLa. The data set can be described thus: Cytotoxicity against human HeLa cells after 3 days by hematoxylin-eosin staining-based assay. The following applies: 72 h, read-out: ID50 (the source's name). Type of data set: functional.
Data set [20] has as its target T1, Alpha glucosidase. The data set can be described thus: Non-competitive inhibition of human alpha-glucosidase expressed in Saccharomyces cerevisiae using p-nitrophenyl-alpha-D-glucopyranoside as substrate after 15 mins by Lineweaver-Burk plot analysis.
Data set [21] has as its system A549. In words: Cytotoxicity against human A549 cells at 10 uM by SRB assay. Type of data set: functional, cell-based.
Data set [22] concerns HeLa. The data set can be described thus: Cytotoxicity against human HeLa cells at 10 uM by SRB assay. Type of data set: functional, cell-based.
Data set [23] is described as follows: Cytotoxicity against human Chang cells at 10 uM by SRB assay. The format is cell-based.
In a further data set the test system is MDA-MB-435. The data set can be described thus: Cytotoxicity against human MDA-MB-435 cells. Type of data set: functional, cell-based.
The test system of another data set is alpha-glucosidase. The data set can be described thus: Therapeutic index, ratio of CC50 for human Chang cells to IC50 for human alpha-glucosidase expressed in Saccharomyces cerevisiae. The format is toxicity. The following applies: read-out: Ratio CC50/IC50.

For orientation: CC50 means the concentration at which the toxic effect on the cells reaches its halfway point. Usually MIC stands for the least concentration at which growth counts as inhibited. High values mean a less susceptible organism, low ones a more susceptible organism. For the compound `C=CCOc1ccc(-c2c(OC)cc(-c3ccc(O)cc3)c(OC)c2O)cc1`, the IC50 was 1.02 µM in the data set with HeLa [1], 32.2 µM on Alpha glucosidase [3], 0.17 µM with A549 [4] and 0.95 µM in the data set on HepG2 [5]. The compound also yielded a CC50 in data set [2] of 0.57 µM. In the data set on Staphylococcus aureus, the MIC amounted to 6.25 µM (≈ 2.37 µg/mL).
`COc1cc(-c2ccc(O)cc2)c(OC)c(O)c1-c1ccc(OCC=C(C)C)cc1`: the Activity turned out to be 4.33% in the data set on HeLa [6]; 0.55% with HeLa [7]; 45.75% in the data set with HeLa [8]; 49.83% in the data set with HeLa [9]; 39.42% in the data set with HeLa [10]; 42.24% in the data set with HeLa [11]. The Activity amounted to 42.98% with HeLa [12]; 43.71% in the data set on HeLa [13]; 10.74% in the data set on HeLa [14]; 52.69% in the data set on HeLa [15]; 57.2% in the data set with HeLa [16]; 10.54% with HeLa [17]. Also, the IC50 in the data set with HeLa [1] is 3.18 µM; against Alpha glucosidase [3] it was 17.5 µM; in the data set with A549 [4] it was 0.31 µM; in the data set on HepG2 [5], 0.46 µM. For the same compound, in [2], the midpoint of cytotoxicity, the CC50, lay at 0.31 µM.
As usually defined, the Ki is the equilibrium dissociation constant of an inhibitor or competing ligand from its target. Low values mean tighter binding, high ones weaker binding. As to `COc1cc(-c2ccc(O)cc2)c(OC)c(O)c1-c1ccc(O)cc1` [TERPHENYLLIN], the IC50 in the data set on HeLa [1] came out at 15.1 µM; at Alpha glucosidase [3], 4.79 µM; in the data set with HeLa [19], 10 µg/mL (≈ 29.6 µM). Also, in data set [2], the CC50 amounted to 6.95 µM. Moreover, the result in the data set on HepG2 [18] and in the data set on A549 [21] was inactive. The Ki on Alpha glucosidase [20] was 1.5 µM.
The compound `COc1cc(-c2ccc(O)cc2)c(OC)c(OCc2ccccc2)c1-c1ccc(O)cc1` came in with a CC50 in data set [2] of 17.1 µM. The IC50 against Alpha glucosidase [3] amounted to 19.1 µM. Also, the result in the data set on HepG2 [18], in the data set with HeLa [22] and with A549 [21] was inactive. Besides, in the data set with Staphylococcus aureus, 6.25 µM (≈ 2.68 µg/mL) was the least that counted as inhibitory (MIC).
For the compound `COc1cc(-c2ccc(O)cc2)c(OC)c(OCCC(C)C)c1-c1ccc(O)cc1`, the IC50 on Alpha glucosidase [3] is 8.58 µM. Besides, the Activity entry in [23] is “Non-Toxic”. In addition, the outcome with HepG2 [18], in the data set with HeLa [22] and in the data set with A549 [21] was inactive. The compound also registered a Ki on Alpha glucosidase [20] of 3.45 µM.
Compound `COc1cc(-c2ccc(OCC=C(C)C)cc2)c(OC)c(O)c1-c1ccc(O)cc1` showed a CC50 in data set [2] of 26.2 µM. This compound also showed an IC50 at Alpha glucosidase [3] of 20.1 µM. The result in the data set with HepG2 [18], in the data set with HeLa [22] and in the data set with A549 [21] was inactive. This compound also yielded an MIC in the data set with Staphylococcus aureus of 6.25 µM (≈ 2.54 µg/mL).
Regarding `COc1cc(-c2ccccc2)c(OC)c(O)c1-c1ccc(O)cc1`, the figures for the IC50 at Alpha glucosidase [3] and in the data set on HeLa [19] were 108.2 µM and 32 µg/mL (≈ 99.3 µM), respectively. The Activity entry in data set [23] is given as “Non-Toxic”. For the same compound, the outcome in the data set with HepG2 [18], with HeLa [22] and with A549 [21] was inactive.
With `COc1cc(-c2ccc(O)cc2)c(OC)c(O)c1-c1ccc(O)c(O)c1`, the IC50 against Alpha glucosidase [3] was 11.3 µM; in the data set on MDA-MB-435, less than 20 µM. Also, the Activity result in [23] is given as “Non-Toxic”. For the same compound, the result in the data set on HepG2 [18], with HeLa [22] and in the data set on A549 [21] was inactive.
On to `CCCOc1c(OC)c(-c2ccc(O)cc2)cc(OC)c1-c1ccc(O)cc1`, for which it took 14.5 µM to reach half-maximal cytotoxicity in [2] (CC50). Besides, the IC50 against Alpha glucosidase [3] was determined as 19.3 µM. In addition, the outcome with HepG2 [18], in the data set on HeLa [22] and with A549 [21] was inactive. In the data set on Staphylococcus aureus, this compound yielded an MIC of 6.25 µM (≈ 2.38 µg/mL).
In data set [2], `COc1cc(-c2ccc(O)cc2)c(O)c(O)c1-c1ccc(O)cc1` returned a CC50 of 224 µM. The selectivity ratio in the data set on alpha-glucosidase turned out to be 17. The compound also displayed an IC50 against Alpha glucosidase [3] of 13.2 µM. The result in the data set with HepG2 [18], in the data set on HeLa [22] and with A549 [21] was inactive.
For the compound `CCCOc1ccc(-c2cc(OC)c(-c3ccc(O)cc3)c(O)c2OC)cc1`, the CC50 in [2] was 98.5 µM. Besides, the selectivity ratio with alpha-glucosidase turned out to be 10. This compound showed an IC50 on Alpha glucosidase [3] of 10 µM. Further, the outcome in the data set on HepG2 [18], with HeLa [22] and in the data set with A549 [21] was inactive.
Regarding `COc1cc(-c2ccc(O)cc2)c(OC)c(OCC=C(C)C)c1-c1ccc(O)cc1`, the half-maximal cytotoxic concentration (CC50) in data set [2] came out at 15.9 µM. Further, the IC50 on Alpha glucosidase [3] is 23.4 µM. Also, the result in the data set with HepG2 [18], in the data set on HeLa [22] and in the data set on A549 [21] was inactive. This compound had an MIC against Staphylococcus aureus of 6.25 µM (≈ 2.54 µg/mL).
Take `COc1cc(-c2ccc(O)cc2)c(OC)c(OCCBr)c1-c1ccc(O)cc1`: the CC50 in data set [2] stood at 39.1 µM. In addition, the IC50 at Alpha glucosidase [3] was 18.8 µM. Besides, the outcome in the data set on HepG2 [18], in the data set on HeLa [22] and with A549 [21] was inactive. In addition, in the data set with Staphylococcus aureus, the MIC was 6.25 µM (≈ 2.78 µg/mL).
With `COc1c(Br)c(-c2ccc(O)cc2)c(OC)c(O)c1-c1ccc(O)cc1`, the IC50 on Alpha glucosidase [3] amounted to 7.14 µM. Moreover, the Activity result in data set [23] is “Non-Toxic”. Moreover, the result with HepG2 [18], with HeLa [22] and in the data set with A549 [21] was inactive. For the same compound, 1.56 µM (≈ 0.651 µg/mL) was the least that counted as inhibitory against Staphylococcus aureus (MIC).
For `COc1cc(-c2ccc(O)cc2)c(OC)c(O)c1-c1ccc(OCc2ccccc2)cc1`, in data set [2], it took 23.1 µM to reach half-maximal cytotoxicity (CC50). Also, the IC50 against Alpha glucosidase [3] was found to be 12.5 µM. Further, the result in the data set with HepG2 [18], with HeLa [22] and in the data set on A549 [21] was inactive. In the data set with Staphylococcus aureus, the MIC was found to be 6.25 µM (≈ 2.68 µg/mL).
Regarding `COc1cc(-c2ccc(OCc3ccccc3)cc2)c(OC)c(O)c1-c1ccc(O)cc1`, the CC50 in [2] was determined as 39.1 µM. This compound returned an IC50 on Alpha glucosidase [3] of 12.5 µM. Moreover, the result in the data set with HepG2 [18], in the data set with HeLa [22] and with A549 [21] was inactive. Moreover, the MIC against Staphylococcus aureus amounted to 6.25 µM (≈ 2.68 µg/mL).
Regarding `COc1cc(-c2ccc(O)c(O)c2)c(OC)c(O)c1-c1ccc(O)c(O)c1`, the IC50 against Alpha glucosidase [3] was 14 µM; in the data set on MDA-MB-435 it was less than 20 µM. In addition, in data set [23], the Activity result is “Non-Toxic”. Also, the result in the data set with HepG2 [18], in the data set with HeLa [22] and in the data set with A549 [21] was inactive.
